pKd: −log10 of the molar value.
Molecular target: Proteasomal ubiquitin receptor ADRM1 (Homo sapiens, UniProt Q16186)
Assay: Isothermal Titration Calorimetry Experiments
Method: ITC experiments were performed at 25° C. on a MicroCal iTC200 system (Malvern, PA, USA). hRpn13 Pru, XL5, XL5 derivative, or RA190 were prepared in buffer C. One aliquot of 0.5 μL followed by 17 or 18 aliquots of 2.1 μL of 200 μM hRpn13 Pru was injected at 750 r.p.m. into a calorimeter cell (volume […]) that contained 20 μM XL5, XL5 derivative, or RA190. Blank experiments were performed by replacing XL5, XL5 derivative, or RA190 with buffer in the cell and the resulting data subtracted from the experimental data during analyses. The integrated interaction heat values were normalized as a function of protein concentration and the data were fit with MicroCal Origin 7.0-based software implementing the One Set of Sites model to yield binding affinity Ka (1/Kd), stoichiometry, and other thermodynamic parameters.

Proteasomal ubiquitin receptor ADRM1, sequence (Q16186 whole entry): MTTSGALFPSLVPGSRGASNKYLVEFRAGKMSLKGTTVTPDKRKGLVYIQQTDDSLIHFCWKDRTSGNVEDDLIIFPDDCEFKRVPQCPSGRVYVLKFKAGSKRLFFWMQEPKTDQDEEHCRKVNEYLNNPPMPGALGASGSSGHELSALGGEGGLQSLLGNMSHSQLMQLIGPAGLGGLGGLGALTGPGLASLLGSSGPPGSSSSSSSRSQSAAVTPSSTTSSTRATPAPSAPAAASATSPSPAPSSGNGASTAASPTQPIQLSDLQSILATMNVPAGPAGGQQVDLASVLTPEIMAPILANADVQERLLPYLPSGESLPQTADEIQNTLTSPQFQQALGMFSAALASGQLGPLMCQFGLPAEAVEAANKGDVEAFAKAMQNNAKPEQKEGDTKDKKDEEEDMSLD

pKd	SMILES
5.42	COc1ccc(NC(=O)/C(C#N)=C/c2cccc(NC(=O)c3ccc(C)cc3)c2)c(C(=O)O)c1 [US20240317732, Compound XL28]
5.11	CNc1ccc(NC(=O)/C(C#N)=C/c2cccc(NC(=O)c3ccc(C)cc3)c2)c(C(=O)O)c1 [US20240317732, Compound XL29]
4.91	Cc1ccc(C(=O)Nc2cccc(C=C(C#N)C(=O)Nc3cccc(C(F)(F)F)c3C(=O)O)c2)cc1 [US20240317732, Compound XL30]

More lines, now with the values behind:

SMILES	pKd
N#C/C(=C\c1cccc(NC(=O)c2ccccc2Cl)c1)C(=O)Nc1ccccc1C(=O)O [US20240317732, Compound XL23]	5.41
N#CC(=Cc1cccc(NC(=O)c2ccc(NCC(=O)O)cc2)c1)C(=O)Nc1ccccc1C(=O)O [US20240317732, Compound XL25]	5.39
Cc1ccc(C(=O)Nc2cccc(C=C(C#N)C(=O)Nc3ccccc3C(=O)O)c2)nc1O [US20240317732, Compound XL27]	5.40
